“Also recorded” adds a separate entry of the source.
Key:
[1] = system: CTL line Bx63; experiment: p-MHC class I tetramer staining of CTL line Bx63; type: cell-based, bovine; details: cell line Bx63; Tp8_379-387-BoLA-3*00101 tetramers
Protocol: (§1) UFC510024] at 14 000 g for 10 min.

[2] = system: BoLA-6*01301
Protocol: Peptides were purchased from Mimotopes (Victoria, Australia) at a purity of 95% and re-suspended in water containing 0.1% acetic acid at a final concentration of 10 mM and diluted to working concentrations in sterile water. The sequences of T. parva peptide epitopes are as in Table 1.

[3] = system: CTL line BB007; experiment: p-MHC class I tetramer staining of CTL line BB007; type: cell-based, bovine; details: peptide as BoLA-6*01301 tetramer, PE-streptavidin; Figure 1
Protocol: as §1

[4] = system: CTL line Bx196; experiment: p-MHC class I tetramer staining of CTL line Bx196; type: cell-based, bovine; details: cell line printed as 196; Tp2_96-104-BoLA-T2c tetramers
Protocol: as §1

[5] = system: BoLA-1*02301; experiment: p-MHC monomer binding assay, BoLA-1*02301; design: species or system bovine; details: data not shown
Protocol: (§2) Folding of p-MHC class I complexes was assessed with an ELISA assay as described in [35]. […] After an incubation of 48 h at 18 °C, the complexes were transferred to another 96-well plate pre-coated with streptavidin (Nunc, cat# 436014), which captures biotinylated HC, and incubated for three hours at 4 °C. After washing, the W6/32 monoclonal antibody (Santa Cruz Biotechnology, Texas, USA, cat # SC-32235), which binds to a monomorphic epitope on β2m but only when it is incorporated in p-MHC class I complexes, was added for 1 h at 4 °C. After washing, anti-mouse IgG coupled to peroxidase (Sigma Aldrich, cat # A9917-1ML) was added to the plate followed by incubation for an hour at room temperature and further rounds of washes. Colorimetric change was performed by adding the TMB Plus2 “Ready to Use” Substrate (Kem En Tec, cat # 4395H) for 10 min at room temperature. The reaction was stopped by adding H2SO4 (0.3 M) and optical density was measured using an ELISA plate reader at 450 nm. The concentration of MHC class I and β2m molecules used in such assays is normally in the nanomolar range [35]. […] We are in the process of generating a β2m without the extra start methionine, which should allow use of recombinant molecules in the nanomolar range.

[6] = system: CTL line BV50; experiment: p-MHC class I tetramer staining of CTL line BV50; type: cell-based, bovine
Protocol: as §1

[7] = system: BoLA-T5; experiment: peptide-BoLA binding assay, BoLA-T5; design: species or system bovine; details: peptide-BoLA binding assays
Protocol: as §2

[8] = system: BoLA-3*00101; design: method as in PMID 18070892; details: ref [29]; cited from earlier work
[9] = biological target: BoLA-T7 (bovine); experiment: not stated; preliminary data, not shown
[10] = system: PBMC of BoLA-A18 cattle; experiment: ex vivo tetramer staining of PBMC from ITM-vaccinated cattle; details: days 15 to 17 post ITM vaccination, T. parva Muguga 3308; Tp1_214-224-BoLA-6*01301 tetramers; three BoLA-A18 cattle
Protocol: Three cattle of BoLA-A18 haplotype (typed with PCR primers [forward] 5’-[…]-3’ and [reverse] 5’-[…]-3’ specific for BoLA-6*01301) were vaccinated by ITM [24] using the T. parva strain Muguga 3308. Whole blood was collected from these cattle at the day of vaccination (day 0) and every two days till appearance of tetramer positive cells. PBMC were purified on Ficoll paque density gradients at 2500 rpm for 25 min and 5 × 10^5 PBMC were stained with the Tp1_214-224-BoLA-6*01301 tetramer as described in the flow cytometry procedure. This animal experiment was approved by the ILRI IACUC committee [# 2012.10].

[11] = system: CTL line BB007; experiment: multiple staining of tetramer-positive cells (CD8, FasL, perforin); type: cell-based, bovine
Protocol: Flow cytometry data were acquired on a BD FACSCanto™ II instrument (BD Biosciences). Compensation controls for PE, PerCP, FITC and APC were included for automatic compensation by the FACS DIVA software. 10 μL BoLA class I tetramer was used for staining cells (between 2 × 10^5 and 5 × 10^5 cells per sample). CD8 staining was done by incubating cells with ILRI monoclonal antibody ILA51 (IgG1) and using rat anti-mouse IgG1-PerCP (BD; cat # 340272) as the secondary antibody. Staining for perforin was done using anti-human-perforin-FITC (BD Pharmingen, San diego, CA, USA, cat# 556577) and staining for Fas-ligand was done using primary rabbit anti-Fas ligand (Santa Cruz biotechnology, cat no. SC-957) and secondary FITC-coupled anti-rabbit IgG antibody (Sigma, MO, USA, cat# F-0382). All staining were conducted in PBS-0.5% BSA except for intracellular staining with anti-perforin where cells were incubated and stained in PBS-0.1%Saponin-10% FBS. Negative control for intracellular staining was done with anti-dansyl-FITC antibody (BD Pharmingen, San diego, CA, USA, cat# 556577). The data were analyzed using the FlowJo software version 7.6.5.

CGAELNHFL [Tp8_379-387]
tetramer positive cells [1]: about 3%

FAQSLVCVL [Tp2_96-104, irrelevant peptide for BoLA-6*01301]
binding to BoLA-6*01301 (in words) [2]: does not bind BoLA-6*01301 | tetramer staining of CTL (in words) [3]: low level smear staining | tetramer positive cells [4]: about 65%

SKADVIAKY [Tp5_87-95]
p-MHC monomer binding to BoLA-1*02301 (in words) [5]: confirmed by p-MHC monomer binding assays; also recorded: does indeed bind both BoLA molecules | co-staining by Tp5_87-95-BoLA-1*02301 (PE) and Tp5_87-95-BoLA-T5 (APC) tetramers (in words) ([6]; CD8-gated, Figure 7C): both tetramers bind the same population of CTL; also recorded: a single TCR can recognize the Tp5_87-95 epitope presented by either BoLA molecule | tetramer staining of BV50 (in words) ([6]; peptide as Tp5_87-95-BoLA-1*02301 tetramer, BV50 and 495 lines tested): The only CTL line stained by this tetramer was BV50 | tetramer staining of BV50 (in words) ([6]; peptide as Tp5_87-95-BoLA-T5 tetramer, Figure 7B): also stained by Tp5_87-95-BoLA-T5 p-MHC class I tetramers | peptide-BoLA binding, BoLA-T5 (in words) [7]: does indeed bind both BoLA molecules

TGASIQTTL [Tp4 CTL epitope, control peptide for BoLA-3*00101]
binding to BoLA-3*00101 (in words) [8]: known binder to BoLA-3*00101

Tp7_(206-214) peptide
Kd [9]: 0.252 µM

Tp7_(207-214) peptide
Kd [9]: 0.142 µM

VGYPKVKEEML [Tp1_214-224]
tetramer staining of CTL (in words) [3]: staining of a clear distinct cell population | frequency of Tp1 tetramer positive cells in PBMC [10]: about 1% | CD8 and perforin, triple staining ([11]; Figure 4D): tetramer-positive cells are also positive for CD8 and perforin | CD8 expression of Tp1 tetramer positive cells ([11]; Tp1_214-224-BoLA-6*01301 tetramer, Figure 4A): all Tp1 positive cells in the cell line BB007 were CD8-positive | FasL expression of Tp1 tetramer positive cells ([11]; Tp1_214-224-BoLA-6*01301 tetramer, Figure 4B): FasL-positive | perforin expression of Tp1 tetramer positive cells ([11]; Tp1_214-224-BoLA-6*01301 tetramer, Figure 4C): perforin-positive

YMYRVWSPL
binding to BoLA-6*01301 (in words) [2]: binds to BoLA-6*01301 | affinity for BoLA-6*01301 ([2]; control peptide from a bank of random nonamer peptides, binding assay as described in [34]): ≥ 1 nM | tetramer staining of CTL (in words) [3]: very low staining

— publication PMC4018993, “Use of “one-pot, mix-and-read” peptide-MHC class I tetramers and predictive algorithms to improve detection of cytotoxic T lymphocyte responses in cattle” (Veterinary Research, 2014)
